Source: publication PMC3564796, “Reversal of MRP7 (ABCC10)-Mediated Multidrug Resistance by Tariquidar” (PLoS ONE, 2013)

Tests used:
MRP7 (ABCC10) [1] = molecular target: T1, MRP7 (ABCC10) (Homo sapiens, UniProt Q5T3U5); assay: cellular efflux time course, HEK/MRP7 versus HEK/pcDNA; assay type: cell-based; conditions: labelled compound (3H); 0.01 µM; 37°C; 0-120 min
T1 construct: MRP7 expression vector stably transfected into HEK293 cells (HEK/MRP7); empty-vector HEK/pcDNA as control
T1 sequence (Q5T3U5 1-1492): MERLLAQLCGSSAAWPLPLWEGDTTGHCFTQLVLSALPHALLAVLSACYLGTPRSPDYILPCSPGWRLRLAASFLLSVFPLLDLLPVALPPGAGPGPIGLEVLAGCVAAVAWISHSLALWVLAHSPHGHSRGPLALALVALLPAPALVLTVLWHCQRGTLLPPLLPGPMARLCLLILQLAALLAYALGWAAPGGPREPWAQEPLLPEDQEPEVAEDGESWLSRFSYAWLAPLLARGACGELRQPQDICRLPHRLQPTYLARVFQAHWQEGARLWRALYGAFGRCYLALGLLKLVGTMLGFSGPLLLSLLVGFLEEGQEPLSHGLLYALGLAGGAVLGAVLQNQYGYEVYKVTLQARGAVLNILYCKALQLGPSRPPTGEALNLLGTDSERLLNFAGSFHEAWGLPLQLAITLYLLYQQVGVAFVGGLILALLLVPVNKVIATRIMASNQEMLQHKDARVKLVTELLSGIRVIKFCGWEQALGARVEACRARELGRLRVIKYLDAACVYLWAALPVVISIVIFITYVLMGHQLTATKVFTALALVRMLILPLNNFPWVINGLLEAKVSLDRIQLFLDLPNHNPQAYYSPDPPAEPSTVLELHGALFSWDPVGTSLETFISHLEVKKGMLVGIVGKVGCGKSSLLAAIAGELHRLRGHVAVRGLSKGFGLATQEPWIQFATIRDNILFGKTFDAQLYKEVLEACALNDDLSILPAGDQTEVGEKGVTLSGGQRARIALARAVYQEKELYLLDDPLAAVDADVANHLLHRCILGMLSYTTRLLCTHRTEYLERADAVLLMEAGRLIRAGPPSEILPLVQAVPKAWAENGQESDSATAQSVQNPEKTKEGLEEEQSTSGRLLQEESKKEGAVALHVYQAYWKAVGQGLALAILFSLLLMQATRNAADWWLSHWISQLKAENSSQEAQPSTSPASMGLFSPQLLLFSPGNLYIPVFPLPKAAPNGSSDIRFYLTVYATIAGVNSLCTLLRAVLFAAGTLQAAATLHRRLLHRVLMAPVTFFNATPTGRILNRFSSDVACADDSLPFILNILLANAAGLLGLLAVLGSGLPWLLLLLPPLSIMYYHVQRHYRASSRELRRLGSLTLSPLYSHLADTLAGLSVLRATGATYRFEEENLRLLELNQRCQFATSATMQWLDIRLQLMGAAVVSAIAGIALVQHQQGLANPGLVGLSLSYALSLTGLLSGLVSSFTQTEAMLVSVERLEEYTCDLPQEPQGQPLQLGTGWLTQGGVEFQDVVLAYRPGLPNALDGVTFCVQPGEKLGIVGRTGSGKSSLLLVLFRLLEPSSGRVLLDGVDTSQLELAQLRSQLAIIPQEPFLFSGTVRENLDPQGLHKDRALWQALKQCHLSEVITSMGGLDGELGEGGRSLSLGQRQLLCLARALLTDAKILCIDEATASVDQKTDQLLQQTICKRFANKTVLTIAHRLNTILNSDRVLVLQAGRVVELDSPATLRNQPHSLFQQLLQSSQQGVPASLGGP

MRP7 (ABCC10) [2] = molecular target: T1, MRP7 (ABCC10); assay: [3H]-paclitaxel accumulation in HEK/MRP7 cells; assay type: cell-based; conditions: 4 h treatment; 0.01 µM [3H]-paclitaxel (methods; Figure 5 legend prints 0.1 µM); 37°C; inhibitor of efflux

CC(=O)O[C@H]1C(=O)[C@@]2(C)[C@H]([C@H](OC(=O)c3ccccc3)[C@]3(O)C[C@H](OC(=O)[C@H](O)[C@@H](NC(=O)c4ccccc4)c4ccccc4)C(C)=C1C3(C)C)[C@]1(OC(C)=O)CO[C@@H]1C[C@@H]2O [[^3H]-paclitaxel]
cellular efflux time course, HEK/MRP7 versus HEK/pcDNA (MRP7 (ABCC10) [1]): HEK/MRP7 cells, but not the parental HEK/pcDNA cells, rapidly effluxed [^3H]-paclitaxel

COc1cc2c(cc1OC)CN(CCc1ccc(NC(=O)c3cc(OC)c(OC)cc3NC(=O)c3cnc4ccccc4c3)cc1)CC2 [Tariquidar]
fold [3H]-paclitaxel accumulation at 0.3 μM (MRP7 (ABCC10) [2]): 1.8 fold
